Experimental data reported in PubChem BioAssay AID2252 (Southern Research Specialized Biocontainment Screening …, 2010).
Values joined by “and” are separate entries in the source; they are usually repeats but may differ in a detail not shown here. Equal values may be shown once.

What follows are compounds tested on THP-1 viability, CellTiter-Glo luminescence, 72 h (assay: PubChem AID 2252).

Row | SMILES | EC50
1 | C#CCOCCOCCOCCNc1nc(N2CCN(C(=O)CCCCCCCCCCNC(=O)[C@H](CCCCN)n3cc(CCO)nn3)CC2)nc(N2CCN(C(=O)CCCCCCCCCCNC(=O)[C@H](CCCN=C(N)N)n3cc(C[C@@H](C)CC)nn3)CC2)n1 | 11.3 µM
2 | COc1cc(C(=O)O/N=C2\C=CC(=O)C(C)=C2)cc(OC)c1OC | 7.36 µM
3 | Clc1ccc(CONc2ncnc3nonc23)c(Cl)c1 | 47.7 µM
4 | COCCCNC(=S)NNC(=O)c1ccccn1 | 38 µM
5 | O=C(Nc1ccc([N+](=O)[O-])cc1Cl)c1cc(Cl)ccc1O | 1.93 µM
6 | O=Cc1c(Cl)nc2ccccn2c1=O | 21.7 µM
7 | Cn1c(-c2ccc(Cl)cc2)cnc1N | 33.8 µM
8 | CC(C)N1CSC(=S)N(Cc2ccccc2)C1 | 12.8 µM
9 | CCCCCCOC(=O)C[N+](C)(C)CCOC1CC2CCC1(C)C2(C)C (configuration not stated) | 2.08 µM
10 | CCOC(=O)c1c(CSC(=N)N)n(C)c2cc(Br)c(OC(C)=O)cc12 | 16.9 µM
11 | CN(C)CCNc1oc(COc2ccc(-c3ccccc3)cc2)nc1C#N | 13.1 µM
12 | CCCCCc1ccc(OCCCC[n+]2cccc(C)c2)c(CCCCC)c1 | 1.05 µM
13 | O=[N+]([O-])/C=C/c1cc2ccccc2[nH]1 | 44.9 µM
14 | O=C1C=CC(=O)N1CCCCCCN1C(=O)C=CC1=O | 3.29 µM
15 | CN(C)CCCNC(=O)c1ccc(-c2nc(-c3ccc(Cl)cc3)cs2)cc1 | 3.96 µM
16 | COc1cc2c3cc1Oc1cc(ccc1O)C[C@@H]1c4c(cc(OC)c(O)c4Oc4ccc(cc4)C[C@H]3N(C)CC2)CCN1C | 8.8 µM
17 | O=C(Nc1c(Cl)ccc2nsnc12)c1ccc([N+](=O)[O-])o1 | 3.84 µM
18 | CCn1cc(C(=O)O)c(=O)c2cc(F)c(N3CCN(C(=S)NC(=O)c4cccc(C)c4)CC3)cc21 | < 0.1 µM
19 | Cc1cc(Cl)c(OCCCNCc2ccccc2)c(Br)c1 | 21.4 µM
20 | N=c1c2c(-c3ccccc3)c(-c3ccccc3)n(Cc3ccco3)c2ncn1CCCn1ccnc1 | 7.71 µM
21 | Oc1c(Br)cc(Br)cc1Oc1ccc(Br)cc1Br | 26.9 µM

Row | SMILES | EC50
22 | O=C(/C=C/c1cc(Br)ccc1O)c1ccco1 | 8.79 µM
23 | S=C(Nc1ccc(Cl)c(Cl)c1)NC1CCN(Cc2ccccc2)CC1 | 10.7 µM
24 | C#CCOCCOCCOCCNc1nc(N2CCN(C(=O)CCCCCCCCCCNC(=O)[C@H](CO)n3cc(CCCCCN)nn3)CC2)nc(N2CCN(C(=O)CCCCCCCCCCNC(=O)[C@H](CCCN=C(N)N)n3cc(C[C@@H](C)CC)nn3)CC2)n1 | 6.31 µM
25 | O=C(/C=C/c1ccc(F)cc1)NC(=S)NNC(=O)c1cnccn1 | 6.17 µM
26 | Cc1ccc2oc(=O)c(/C=C(\O)c3ccccc3)nc2c1 | < 0.1 µM
27 | COc1ccc(/C=N/NC(=O)c2ccc3c(c2)OCO3)cc1 | 48.7 µM
28 | OCCCNc1c2ccccc2nc2ccccc12 | 2.13 µM
29 | Cc1ccccc1C(=O)Nc1cccc(C(=O)N/N=C/c2cc(Cl)cc([N+](=O)[O-])c2O)c1 | 12.4 µM
30 | CN1CCCN(C(c2ccccc2)c2ccc(Cl)cc2)CC1 (configuration not stated) | 8.99 µM
31 | N=c1n(CC(=O)c2ccc(Br)s2)c2ccccc2n1Cc1ccccc1 | 4.4 µM
32 | O=C(/C=C/c1ccccc1Cl)c1ccccc(=O)c1O | 12.9 µM
33 | NC1=NC[C@H](Cc2ccccc2)N1CCCCC1CCCCC1 | 3.5 µM
34 | O=C(/C=C/c1ccco1)NC(=S)Nc1cccc(-c2nc3ccccc3o2)c1 | < 0.1 µM
35 | c1ccc2c(SCc3cn4ccccc4n3)nncc2c1 | < 0.1 µM
36 | Fc1ccc(Nc2ccnc(Nc3ccc(F)cc3)n2)cc1 | 11.7 µM
37 | CCc1ccc(-c2nn(-c3ccccc3)cc2CSC(=N)N)cc1 | 5.18 µM
38 | CN(C)CC/C=C1\c2ccc(F)cc2Sc2cc(F)c(Cl)cc21 | 11.3 µM
39 | O=C1C2=C(Nc3ccccc3SC2c2ccco2)c2ccccc21 (configuration not stated) | 23.6 µM
40 | O=C1c2ccccc2C(=O)N1CCCP(=O)(O)CCc1ccccc1 | < 0.1 µM
41 | OC(CNCCc1ccc(Cl)cc1)COc1cc(Cl)ccc1Cl (configuration not stated) | 29.8 µM
42 | NC1=NC2(CCCCC2)N=C(Nc2ccc(Br)cc2)N1 | 2.39 µM

Row | SMILES | EC50
43 | O=Nc1ccc(O)c2ncccc12 | 2.07 µM
44 | c1ccc2c(c1)C(=NC1CCCCC1)NC2=NC1CCCCC1 | 4.25 µM
45 | O=C(Nc1nc(-c2ccccn2)cs1)c1ccc(Cl)s1 | 0.84 µM
46 | O=C(N/N=C\c1c[nH]c2ccccc12)c1ccc(O)cc1 | < 0.1 µM
47 | OCCN1CCN(CCCN2c3ccccc3Sc3ccc(Cl)cc32)CC1 | 12.5 µM
48 | CC(=O)NC(c1ccc(Cl)cc1Cl)c1ccc2cccnc2c1O (configuration not stated) | 7.25 µM
49 | CN(C)CCCN1c2ccccc2Sc2ccc(C(F)(F)F)cc21 | 14.6 µM
50 | Nc1nc(Nc2ccc(Cl)cc2)nc2ccccc12 | 6.06 µM
51 | O=C(Nc1c2ccccc2nc2ccccc12)C(Cl)(Cl)Cl | 20 µM
52 | Cc1ccc(NC2=C(Cl)C(=O)OC2OC(=O)c2ccco2)c(C)c1 (configuration not stated) | 27.9 µM
53 | O=[N+]([O-])c1cccnc1S(=O)(=O)c1ccccc1 | 1.77 µM
54 | CCCOc1ccc(C(=O)NNC(=S)NC(=O)c2ccco2)cc1 | 16.8 µM
55 | CCOc1cc(CNCCCN2CCOCC2)cc(Br)c1OCC(=O)Nc1cccc(C(F)(F)F)c1 | 8.24 µM
56 | O=C(CSc1cccc2cccnc12)Nc1ccc(S(=O)(=O)N2CCOCC2)cc1 | 24.3 µM
57 | N=c1n(CCN2CCCCC2)c2ccccc2n1CC(O)c1ccc(Cl)c(Cl)c1 (configuration not stated) | 4.6 µM
58 | CC(=O)NC(c1cccs1)c1cc([N+](=O)[O-])c2cccnc2c1O (configuration not stated) | 10.5 µM
59 | O=C(NCCCNc1ccnc2cc(Cl)ccc12)c1ccccc1F | 21.2 µM
60 | CNCCCCOc1ccc(C(C)(C)C)cc1Cl | 21.8 µM
61 | c1ccc2cc3c(NCCN4CCOCC4)ccnc3cc2c1 | 3.7 µM
62 | COC12C(COC(N)=O)C3=C(C(=O)C(C)=C(N)C3=O)N1CC1C2N1C (configuration not stated) | 11.6 µM
63 | COc1ccc(C(=O)Nc2cc3c(cc2OC)CCCC3)cc1Br | < 0.1 µM

Row | SMILES | EC50
64 | CCC[C@H](CN[C@@H](CNC)[C@H](C)CC)NCCc1cc(C(F)(F)F)cc(C(F)(F)F)c1 | 4.07 µM
65 | c1ccc(CN2CCN(c3nc(NCc4ccco4)c4ccccc4n3)CC2)cc1 | 15.3 µM
66 | CCCCn1c(NS(=O)(=O)c2ccccc2)c(S(=O)(=O)c2ccc(C)cc2)c2nc3ccccc3nc21 | 12 µM
67 | Cc1ccc2c(c1)sc(-c1ccc(N(C)C)cc1)[n+]2C | 4.02 µM
68 | Nc1nc(Nc2cccc(F)c2)nc2ccccc12 | 8.85 µM
69 | CSc1ccc2c(c1)C(N1CCN(C)CC1)Cc1ccccc1S2 (configuration not stated) | 9.33 µM
70 | COc1ccc(NC(=O)CC2Sc3ncnn3C2=O)cc1 (configuration not stated) | 46.5 µM
71 | COc1ccc(C(=O)NC(=S)NNC(=O)c2cccc(C)c2)cc1 | 18.2 µM
72 | Oc1ccc(CN2CCN(c3ccccc3)CC2)c2cccnc12 | 5.88 µM
73 | Cc1c(O)cccc1C(=O)N[C@@H](CSc1ccccc1)[C@H](O)CN1C[C@H]2CCCC[C@H]2C[C@H]1C(=O)NC(C)(C)C | 11.9 µM and 11.6 µM
74 | O=C(N/N=C/c1cc([N+](=O)[O-])ccc1O)c1cccc2cc[nH]c12 | 1.91 µM
75 | O=C(CNCCC1=CCCCC1)Nc1ccc(N2CCCCCC2)cc1 | 15.6 µM
76 | O=C(N/N=C/c1ccc(O)cc1O)C(=O)N/N=C/c1ccc(O)cc1O | 12 µM
77 | Cc1ccc(C(=O)N/N=C\c2ccc([N+](=O)[O-])s2)cn1 | 13.2 µM
78 | COc1ccc(C(=O)NC(=S)NNC(=O)CCc2ccccc2)cc1 | 6.09 µM
79 | O=C(Cn1nc(CNc2ccc(Br)cc2)[n+]2c1CCCCC2)c1ccc([N+](=O)[O-])cc1 | 27.3 µM
80 | N=c1c2c(n(Cc3ccc(Cl)cc3)c3c1CCC3)CCC2 | 11.3 µM
81 | COc1ccc(/C=N/Nc2cc(C)nc3ccccc23)cc1 | 7.03 µM
82 | CC1CCC(C(C)C)C(OC(=O)Cn2c(COc3ccccc3)[n+](C)c3ccccc32)C1 (configuration not stated) | 2.37 µM
